According to patent publication US9885088B2, “Rapid phenotypic diagnosis of pathogens and drug resistance using transcriptional expression signatures” (priority 2010, dated 2018):
Entries after “also recorded” stand apart in the source; their conditions may differ.

Key:
M. tuberculosis [1] = test: microbe, parasite or virus in culture; assay type: cell-based
M. tuberculosis [2] = assay type: cell-based

SMILES	Sensitive (S) or Resistant (R) (M. tuberculosis [1])	increase in minimal inhibitory concentration (MIC) (M. tuberculosis [1])	increase in the MIC (M. tuberculosis [1])	minimal inhibitory concentration (MIC) (M. tuberculosis [1])	expression signature (MSD Z-score) (M. tuberculosis [2])	expression signature induction upon exposure (M. tuberculosis [2])	transcriptional response (M. tuberculosis [2])	transcriptional response / expression signature (M. tuberculosis [2])
NNC(=O)c1ccncc1 [Isoniazid]	S and R	> 100 fold	8 fold	> 6.4 µg/mL	resistant signature	no expression signature induction; also recorded: clearly shows induction of an expression signature	failed to elicit a transcriptional response	responds in a susceptible manner; also recorded: susceptible signature
[H]/N=C(/N)N[C@H]1[C@H](O)[C@@H](O)[C@H](O[C@@H]2O[C@@H](C)[C@](O)(C=O)[C@H]2O[C@@H]2O[C@@H](CO)[C@H](O)[C@@H](O)[C@@H]2NC)[C@@H](N/C(N)=N\[H])[C@@H]1O [Streptomycin]	S and R							
